# Test results taken from patent US20160075991A1, “Process for Preparing Starter Cultures of Lactic Acid Bacteria” (INSTITUT NATIONAL DE LA RECHERCHE, priority 1998, published 2016).
# Experiments:
# [1] = tested on: Lactococcus lactis subsp. cremoris strain MG1363; test: Survival of the lactic acid bacteria during storage at 30° C. (Example 2); format: cell-based; details: for Number of viable cells: hemin 10 μg/ml and aeration, 1% glucose M17
# Protocol: (§1) A laboratory medium, i.e. M17 supplemented with 1% of glucose, is inoculated with Lactococcus lactis subsp. cremoris strain MG1363 in the form of a 1/1000 dilution of a saturated culture. The cultures are then divided into two equal parts, and hemin is added to one of these two cultures to give a final concentration of 10 μg/ml. […] Aliquots of the two cultures are removed regularly during the exponential growth phase in order to monitor viability, rate of growth and pH. After 24 h of growth, the cultures are placed (stored) in a 30° C. incubator without shaking, and aliquots are removed every 24 h in order to monitor the viability of the cells.
# [2] = tested on: Lactococcus lactis subsp. cremoris strain MG1363; test: Survival of the lactic acid bacteria during storage at 4° C. (Example 3); format: cell-based; details: for Number of cells per ml: porphyrin compound and aeration, 1% glucose M17, storage at 4° C.
# Protocol: as §1, with “cells. The Lactococcus lactis subsp. cremoris strain MG1363 was cultured as in the experiment described in Example 2, but the storage, which is carried out 24 h after inoculation, is at 4° C. instead of at 30° C.” for “cells.”
smiles,measurement,setting,value
C=CC1=C(C)c2cc3[n-]c(cc4nc(cc5[n-]c(cc1n2)c(C)c5C=C)C(C)=C4CCC(=O)O)c(CCC(=O)O)c3C.[Cl-].[Fe+3] [hemin],viability after one day of storage,"[1]; 2 days after inoculation, storage at 30° C., hemin and oxygen",do not lose any viability
same,rate of survival,"[1]; after 5 days of storage at 30° C., grown with aeration and hemin",approximately 10^−2
same,Number of viable cells,[1]; 0 days after inoculation,1 × 10^6
same,Number of viable cells,[1]; 1 day after inoculation,1.76 × 10^10
same,Number of viable cells,"[1]; 2 days after inoculation, stored at 30° C.",1.71 × 10^10
same,Number of viable cells,"[1]; 3 days after inoculation, stored at 30° C.",5.32 × 10^9
same,Number of viable cells,"[1]; 5 days after inoculation, stored at 30° C.",4.3 × 10^8
same,Number of viable cells,"[1]; 6 days after inoculation, stored at 30° C.",8.5 × 10^7
same,survival rate,"[2]; after 2 months at 4° C., cultured with porphyrin compound under aeration",~5%
same,Number of cells per ml,[2]; 0 days after culture,4.3 × 10^9 cells per ml
same,Number of cells per ml,[2]; 1 day after culture,4.2 × 10^9 cells per ml
same,Number of cells per ml,[2]; 2 days after culture,3.8 × 10^9 cells per ml
same,Number of cells per ml,[2]; 3 days after culture,3.8 × 10^9 cells per ml
same,Number of cells per ml,[2]; 7 days after culture,4.2 × 10^9 cells per ml
same,Number of cells per ml,[2]; 8 days after culture,2.8 × 10^9 cells per ml
same,Number of cells per ml,[2]; 9 days after culture,2.2 × 10^9 cells per ml
same,Number of cells per ml,[2]; 10 days after culture,9.6 × 10^8 cells per ml
same,Number of cells per ml,[2]; 13 days after culture,5.0 × 10^8 cells per ml
same,Number of cells per ml,[2]; 15 days after culture,3.2 × 10^8 cells per ml
same,Number of cells per ml,[2]; 22 days after culture,3.0 × 10^8 cells per ml
same,Number of cells per ml,[2]; 28 days after culture,3.0 × 10^8 cells per ml
same,Number of cells per ml,[2]; 36 days after culture,2.9 × 10^8 cells per ml
same,Number of cells per ml,[2]; 43 days after culture,2.2 × 10^8 cells per ml
same,Number of cells per ml,[2]; 50 days after culture,1.8 × 10^8 cells per ml
same,Number of cells per ml,[2]; 57 days after culture,2.0 × 10^8 cells per ml
